Data set [1] addresses cGMP phosphodiesterase (PDE V) (Homo sapiens, UniProt O76074). The experiment in a line: Affinity to PDE V (IC50, inhibition of enzyme activity). Type of data set: biochemical. Conditions: concentration of the inhibitor needed to achieve 50% inhibition of the enzyme activity. Here is the method: The biological activity of the compounds of the formula I can be determined by methods as described, for example, in WO 93/06104.
The affinity of the compounds according to the invention for cGMP and cAMP phosphodiesterase is determined by measuring their IC50 values (concentration of the inhibitor needed to achieve 50% inhibition of the enzyme activity).
The determinations can be carried out using enzymes isolated by known methods (for example W. J. Thompson et al., Biochem. 1971, 10, 311). The experiments can be carried out using a modified batch method of W. J. Thompson and M. M. Appleman (Biochem. 1979, 18 5228).

Structures can show the parent of a compound that is named as a salt.

As to `COc1ccc(CNc2nc(CN3CCC(C(=O)O)CC3)nc3oc4c(c23)CCCC4)cc1Cl` [Example 4, 1-[4-(3-chloro-4-methoxybenzylamino)-5,6,7,8-tetrahydrobenzo[4,5]furo[2,3-d]pyrimidin-2-ylmethyl]piperidine-4-carboxylic acid], the melting point (commonly the temperature of the solid-liquid transition) is 233 to 235 °C. Consider `O=C(O)c1ccc(-c2nc(NCc3ccc4c(c3)OCO4)c3c4c(oc3n2)CCCC4)cc1` (as salt: salt) [Example 2, 4-[4-(3,4-methylenedioxybenzylamino)-5,6,7,8-tetrahydrobenzo[4,5]furo[2,3-d]pyrimidin-2-yl]benzoic acid], for which the melting point amounted to 205 °C. As for `COc1ccc(CNc2nc(-c3ccc(C(=O)O)cc3)nc3c2c2c(n3C(C)c3ccccc3)CCCC2)cc1Cl` (stereo not shown) (as salt: potassium) [Example 1, 4-[4-(3-chloro-4-methoxybenzylamino)-9-(1-phenylethyl)-6,7,8,9-tetrahydro-5H-1,3,9-triazafluoren-2-yl]benzoic acid], the melting point was determined as 179 °C. Take `CCn1c2ccccc2c2c(NCc3ccc4c(c3)OCO4)nc(-c3ccc(C(=O)O)cc3)nc21` (as salt: sodium) [Example 7, 4-[4-(3,4-methylenedioxybenzylamino)-9-ethyl-9H-1,3,9-triazafluoren-2-yl]benzoic acid]: the melting point was > 250 °C.

As for `COc1ccc(CNc2nc(-c3ccc(C(=O)O)cc3)nc3c2c2ccccc2n3C)cc1Cl` (as salt: sodium) [Example 8, 4-[4-(3-chloro-4-methoxybenzylamino)-9-methyl-9H-1,3,9-triazafluoren-2-yl]benzoic acid], the melting point was > 250 °C. On to `COc1ccc(CNc2nc(-c3ccc(C(=O)O)cc3)nc3c2c2c(n3C(C)c3ccccc3)CCCC2)cc1Cl` (stereo not shown) [Example 1, 4-[4-(3-chloro-4-methoxybenzylamino)-9-(1-phenylethyl)-6,7,8,9-tetrahydro-5H-1,3,9-triazafluoren-2-yl]benzoic acid], for which the IC50 (commonly the concentration that gives 50% inhibition) in data set [1] came to 300 nM. Consider `COc1ccc(CNc2nc(CCCC(=O)O)nc3oc4c(c23)CCCC4)cc1Cl` (as salt: salt) [Example 3, 4-[4-(3-chloro-4-methoxybenzylamino)-5,6,7,8-tetrahydrobenzo[4,5]furo[2,3-d]pyrimidin-2-yl]butyric acid], for which the melting point was determined as 205 °C.

The record behind these values is patent US7312224B2, “Pyrimidine derivatives” (Merck Patent GmbH, priority 2001, dated 2007).
